The source of these data is ChEMBL document CHEMBL1150206, “Verrucoside, a new cytotoxic pregnane glycoside from a gorgonian Eunicella verrucosa” (J Nat Prod, 1991).

Values after ≈ are worked out from the molar mass of the structure shown.

Holding throughout (type): functional, cell-based
In one experiment the test system is P388. Nature of the experiment: Cytotoxicity against mouse P388 cells.
Another experiment deals with A549. Nature of the experiment: Cytotoxicity against human A549 cells.
The test system of a further experiment is HT-29. Put plainly: Cytotoxicity against human HT-29 cells.

Turning to `C=C[C@H]1CC[C@H]2[C@@H]3CC[C@@H]4[C@@H](O[C@@H]5O[C@@H](C)[C@@H](O)[C@@H](OC)[C@@H]5OC(C)=O)[C@@H](O)CC[C@]4(C)[C@H]3CC[C@]12C` [VERRUCOSIDE], the IC50 stood at 5.9 µg/mL (≈ 11.3 µM) in the experiment on P388, 7.2 µg/mL (≈ 13.8 µM) with A549 and 6.3 µg/mL (≈ 12.1 µM) with HT-29.

As usually defined, the IC50 is the midpoint of a concentration-inhibition curve. The low end stands for inhibition by little substance, the high end for a need for much substance.
